Earlier results, collected in patent US20050214353A1, “Transdermal therapeutic system” (priority 2001, published 2005).

With `CCN(CC)C(=O)N[C@H]1C=C2c3cccc4[nH]cc(c34)C[C@H]2N(C)C1` [lisuride, 3-(9,10-didehydro-6-methyl-8α-ergolinyl)-1,1-diethyl urea] as the molecule, how does the “half-life in the blood” value read?
Its value is “ca. 2 hrs”.
